Laboratory results from PubChem BioAssay (NCI).
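1) Cells in 96-well plates. 2) Compound, 48 h, 5 concentrations. 3) Linear interpolation between surrounding doses. 4) Unreached endpoint = highest concentration. Here, GI50 denotes the concentration required for 50% inhibition of growth. TGI denotes the concentration required for complete inhibition of growth.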

Columns and labels:
Assay in all cases: growth of human tumour cells (NCI), 48 h; in the data active = GI50 below about 0.43 µM; inactive = the rest
[1] = system: 786-0 renal
[2] = system: A498 renal
[3] = system: A549 NSCLC
[4] = system: ACHN renal
[5] = system: BT-549 breast
[6] = system: CAKI-1 renal
[7] = system: CCRF-CEM leukemia
[8] = system: COLO 205 colon
[9] = system: DU-145 prostate
[10] = system: EKVX NSCLC
[11] = system: HCC-2998 colon
[12] = system: HCT-116 colon
[13] = system: HCT-15 colon
[14] = system: HL-60(TB) leukemia
[15] = system: HOP-62 NSCLC
[16] = system: HOP-92 NSCLC
[17] = system: HS 578T breast
[18] = system: HT29 colon
[19] = system: IGROV1 ovarian
[20] = system: K-562 leukemia
[21] = system: KM12 colon
[22] = system: LOX IMVI melanoma
[23] = system: MALME-3M melanoma
[24] = system: MCF7 breast
[25] = system: MDA-MB-231 breast
[26] = system: MDA-MB-435
[27] = system: MOLT-4 leukemia
[28] = system: NCI-H226 lung
[29] = system: NCI-H23 lung
[30] = system: NCI-H460 lung
[31] = system: NCI-H522 lung
[32] = system: NCI/ADR-RES ovarian
[33] = system: OVCAR-3 ovarian
[34] = system: OVCAR-4 ovarian
[35] = system: OVCAR-5 ovarian
[36] = system: OVCAR-8 ovarian
[37] = system: PC-3 prostate
[38] = system: RPMI-8226 leukemia
[39] = system: RXF 393 renal
[40] = system: SF-268 CNS
[41] = system: SF-295 CNS
[42] = system: SF-539 CNS
[43] = system: SK-MEL-2 melanoma
[44] = system: SK-MEL-28 melanoma
[45] = system: SK-MEL-5 melanoma
[46] = system: SK-OV-3 ovarian
[47] = system: SN12C renal
[48] = system: SNB-19 CNS
[49] = system: SNB-75 CNS
[50] = system: SR leukemia
[51] = system: SW-620 colon
[52] = system: T-47D breast
[53] = system: TK-10 renal
[54] = system: U251 CNS
[55] = system: UACC-257 melanoma
[56] = system: UACC-62 melanoma
[57] = system: UO-31 renal

COC(=O)c1cc2c3ccccc3[nH]c2c2sccc12
24.8 µM: TGI [22]
76.9 µM: TGI [34]
43.5 µM: TGI [11]
61.8 µM: TGI [47]
> 100 µM: TGI [3] | TGI [4] | TGI [7] | TGI [10] | TGI [12] | TGI [14] | TGI [19] | TGI [20] | TGI [24] | TGI [26] | TGI [27] | TGI [28] | TGI [29] | TGI [31] | TGI [32] | TGI [33] | TGI [35] | TGI [36] | TGI [37] | TGI [38] | TGI [40] | TGI [43] | TGI [44] | TGI [46] | TGI [51] | TGI [55] | TGI [56] | TGI [57]
50.6 µM: TGI [2]
35.4 µM: TGI [45]
70.6 µM: TGI [49]
57 µM: TGI [5]
43.8 µM: TGI [30]
41.8 µM: TGI [8]
80.4 µM: TGI [39]
79.7 µM: TGI [48]
inactive: GI50 [1] 13.8 µM | GI50 [2] 21 µM | GI50 [3] 25.5 µM | GI50 [4] 13.6 µM | GI50 [5] 20.2 µM | GI50 [6] 13.7 µM | GI50 [7] 46 µM | GI50 [8] 17 µM | GI50 [9] 19.7 µM | GI50 [10] 4.12 µM | GI50 [11] 19.4 µM | GI50 [12] 34.1 µM | GI50 [13] 8.9 µM | GI50 [14] > 100 µM | GI50 [15] 11.2 µM | GI50 [16] 17.2 µM | GI50 [17] 13.5 µM | GI50 [18] 6.96 µM | GI50 [19] 4.31 µM | GI50 [20] 15.2 µM | GI50 [21] 12.3 µM | GI50 [22] 5.68 µM | GI50 [23] 29.3 µM | GI50 [24] 27 µM | GI50 [25] 5.06 µM | GI50 [26] 20.3 µM | GI50 [27] 15.7 µM | GI50 [28] 68 µM | GI50 [29] 33.8 µM | GI50 [30] 20.1 µM | GI50 [31] 17.2 µM | GI50 [32] 28.1 µM | GI50 [33] 24.1 µM | GI50 [34] 26.5 µM | GI50 [35] 23.1 µM | GI50 [36] 38.3 µM | GI50 [37] 22.1 µM | GI50 [38] 15.1 µM | GI50 [39] 23.6 µM | GI50 [40] 32.4 µM | GI50 [41] 8.57 µM | GI50 [42] 21.5 µM | GI50 [43] 40.8 µM | GI50 [44] 40.4 µM | GI50 [45] 16.3 µM | GI50 [46] 34.1 µM | GI50 [47] 21.8 µM | GI50 [48] 23.6 µM | GI50 [49] 19 µM | GI50 [50] 12.2 µM | GI50 [51] 35.1 µM | GI50 [52] 6.73 µM | GI50 [53] 13.8 µM | GI50 [54] 14.3 µM | GI50 [55] 89.6 µM | GI50 [56] 22.3 µM | GI50 [57] 7.59 µM
38.7 µM: TGI [17]
62.7 µM: TGI [23]
34 µM: TGI [54]
39.8 µM: TGI [15]
94.4 µM: TGI [13]
66.5 µM: TGI [9]
87.2 µM: TGI [21]
47.1 µM: TGI [52]
98.3 µM: TGI [6]
48.7 µM: TGI [41]
99.7 µM: TGI [16]
94.8 µM: TGI [42]
52.6 µM: TGI [53]
40.7 µM: TGI [1]
61.3 µM: TGI [25]
18.7 µM: TGI [18]
56.5 µM: TGI [50]
